The text below walks through data of patent US20100210467A1, “AGENT FOR IMPROVING SUGARCANE BRIX AND METHOD OF PROMOTING SUGARCANE RIPENING USING THE SAME” (Kumiai Chemical Industry Co., Ltd., priority 2007, published 2010).

Each structure is given as a SMILES string.

The subject of this experiment is sugarcane. As to the kind of experiment: Example 6: sugar content of sugarcane stem juice after bispyribac-sodium + prohexadione-calcium spraying, field test in Brazil. It counts as in vivo. As to conditions: 200 g/ha. Here is the method: In accordance with “NORMAS DE AVALIAçÃO DA […] DA CANA-DE-AçÚCAR” used in Brazilian sugar refining plants as Standard for quality evaluation of sugarcane, the analysis on the sugar content in the squeezed juice of sugarcane stem was carried out for Brix value, sugar content in sugarcane (PC), and total sugar amount recoverable from sugarcane stem (ATR) as follows.
Brix was measured according to a digital refractometer. PC was calculated according to the equation (1). ATR was calculated according to the equation (5).
At the time the Brix value of sugarcane grown in a sugarcane cultivated area in Brazil (an average Brix value in the harvesttime being 20%) became 80% of the aforesaid average Brix value, a bispyribac-sodium formulation (a commercially available product, a tradename, “NOMINEE 400SC”) and a prohexadione-calcium formulation (a tradename, “VIVIFUL”) were admixed together and diluted with water so that the amount of the effective ingredient in 105 liters of each spraying liquid could be equal to the used amount shown in Table 10, and the liquid was sprayed above the plant by the aid of a CO2-pressurized back pack sprayer to the test area at a rate of 105 liters per hectare.
In a control area, a known trinexapac-ethyl formulation (a commercially available product, a tradename “MODDUS”) was similarly sprayed.
Next, 20 individual sugarcanes were cut from each area on the initial day of spraying, after 15 days of spraying, after 30 days of spraying and after 45 days of spraying, and thereafter the stems were squeezed and sugar was recovered from the juice to obtain the yield. Each yield was compared with the yield of the initial day of spraying and the rate of increase (%) was calculated. The analysis on the sugar content in the squeezed juice of sugarcane stems was carried out similarly as in the case of Example 1.

In the case of `CCOC(=O)C1CC(=O)C(=C(O)C2CC2)C(=O)C1` (stereo not drawn) [Trinexapac-ethyl, trinexapac-ethyl], where the note is “after 15 days of spraying”, the “ATR increased rate from the initial day of spraying” value (“ATR increased rate” below) was determined as 10.3%; the “Brix increased rate from the initial day of spraying” value (“Brix increased rate” below) was 8.0%; the “Concentration of soluble solid matter, Brix” value (“Concentration” for short) is 17.5%; the “Total sugar amount recoverable from 1 kg of stem, ATR” value (from here on “Total sugar amount recoverable”) was found to be 125.3 g. For the same molecule, for the setting “after 30 days of spraying”, the “ATR increased rate” value is listed as 18.0%; the “Brix increased rate” value turned out to be 15.7%; the “Concentration” value stood at 18.8%; the “Total sugar amount recoverable” value is given as 134.0 g. For the same molecule, where the note is “after 45 days of spraying”, the “ATR increased rate” value came out at 30.8%; the “Brix increased rate” value stood at 24.7%; the “Concentration” value is 20.2%; the “Total sugar amount recoverable” value was 148.5 g.
